Measurements from patent publication US20230210984A1, “ADOPTIVE IMMUNOTHERAPY” (The Council of the Queensland Institute of Medical Research, priority 2019, published 2023).

Assays:
[1] = tested on: EBV-associated cell lines (nasopharyngeal and gastric cancer cell lines); experiment: MTS cell viability assay, IC50 of inhibitors; assay type: cell-based
Protocol: FIG. 9: Determining the IC50 value of MEK1/2 inhibitors. Representation of the cell viability performed using MTS assay after the indicated cell lines were incubated with 0.1 μM-5 μM of selumatinib (left panel) and trametinib (right panel) for 48 hours. The data are represented as the mean±SD from three independent experiments.
FIG. 14: Determining the IC50 value of JQ1 inhibitors. Representation of the cell viability performed using MTS assay after the indicated cell lines were incubated with 0.5 μM-10 μM of JQ1 for 48 hours. The data are represented as the mean±SD from three independent experiments.
Cell viability assay was performed using the CellTiter 96® AQueous one cell viability assay reagent (Promega, WI, USA) for three biological replicates per EBV-associated cancer cell lines in triplicate. Briefly, the cancer cells (target cells) were plated at a density of 5000 cells per well in an overall media volume of 200 μL on a 96-well tissue-culture plate (BD Falcon™). The effector AdE1-LMPpoly transfected T cells were freshly thawed in RPMI-1640 with 10% FCS and 120 IU/mL of recombinant IL-2 at 37° C. and […]. Post 24 hrs of plating and incubation at 37° C. and […], the effector T cells were mixed to the target cells at a gradient ratio of effector to target (E:T) of 5:1-100:1. The exact number of T cells (To) used per E:T ratio (ET) was independently used as control alongside PBS treated target cells (Es) and sole media (M0). After 24 hrs of incubation at 37° C. and […], MTS was added to each well (1:100 dilution in media) and was incubated for 1 hour following which the plate was centrifuged at 1,200×g at room temperature for 5 min and absorbance of the mixture at an optical density of 490 nm was measured via a microplate reader. The relative cell viability was calculated using the following formula: […]
To determine the upregulation of MAPK pathway in EBV-associated solid cancers, we first identified the IC50 value of MEK1/2 inhibitors (AZD6244 or selumetanib and trematinib) across nasopharyngeal and gastric cancer cell lines (with drug concertation ranging from 0.1 μM-5 μM). […] In the next set of experiments, we wanted to determine the impact of MEK1/2 inhibition in combination with allogeneic EBV-specific T cells on EBV-associated solid cancers. As such, we treated the respective EBV-associated cell lines (both gastric and nasopharyngeal) individually or in combination with MEK1/2 inhibitors (both selumetanib and trematinib) and EBV-specific T cells.
Similarly, we targeted MYC-dependent cancer intrinsic pathway using JQ1 inhibitor by first determining the IC50 value of the inhibitor across nasopharyngeal and gastric cancer cell lines (with drug concertation ranging from 0.5 μM-10 μM). […] To characterized the impact of JQ1 inhibition in combination with allogeneic EBV-specific T cells on EBV-associated cancer cells, we used IC25 value JQ1 (2.5 μM) alongside an effector to target ratio of 25:1 of the respective HLA matched allogeneic EBV-specific T cells in vitro. […] We also performed phenotypic characterization, using flow cytometry, of SNU719 and C666.1 cells after 16 hours of individual and dual treatment in vitro.

[2] = tested on: SNU719 gastric cancer xenograft; experiment: SNU719 xenograft, anti-PD1 and allogenic EBV-specific T cells in vivo; parameters: species or system NOD/SCID mice
Source text: FIG. 6: Impact of PD1 inhibition on therapeutic efficacy of allogeneic EBV-specific cytotoxic T cells in vivo. (A) Heat-map representing gene signature of 326 genes observed RNA isolated from in the tumour infiltrating (TILs) CD8+ cells performed using NanoString Immune function panel. The TILS were isolated from SNU719 derived tumour xenograft from six independent mice (LT5-10) after 5 days post a single dose of TI_001 treatment when the tumour size reached 40 mm^2. The gene expression observed in TILS was compared to unstimulated (LT11) and EBV-pepmix stimulated (LT12). (B) Statistical representation comparing the (i) percentage of CD3+CD8+ population; (ii) percentage of CD8+PD1+ population; (iii) percentage of CD8+LAG3+ population; and (iv) percentage of CD8+ TIM3+ population of viable TILS (described in (A)) and compared to unstimulated T cells (T cell therapy). Error bars represent the ±SEM from three independent experiments. P-values were calculated using one-way ANOVA. Statistical representation of SNU719 derived xenograft indicating (C) tumour growth; (D) tumour weight (in gms) at ethical limit of tumour growth; (E) percent survival post T cell, anti-PD1 and combination of T cell and anti-PD1 therapy observed in respective treatment groups compared to mock (PBS) treated control group. The statistical significance of data of tumour weight was analysed by one-way ANOVA. The mice survival was monitored over the indicated period of time and the statistical significance of data was analysed by log-rank test: ns not significant, **p<0.01, ***p<0.001, and ****p<0.0001.
A total of 12-24 female NOD/SCID mice (depending on the experiment) of 7-8 weeks old were used in this study. The mice were subjected to irradiation with 0.8 Gy cobalt-60 and after 4 hours, were subcutaneously injected with 5×10^6 cells of respective EBV-associated cancer cells with a 29-gauge needle. The mice were monitored for tumour growth, weight and body score thrice weekly. Once the tumour was palpable, the mice were randomised into respective groups and were treated with respective dosage of PBS or 20×10^6 tumour HLA matched allogenic EBV-specific T-cells. The tumour size in these mice were measured thrice weekly using the Vernier Calipers. To calculate tumour area the following formula was used: tumour area=B*S where B=largest tumour measurement and S=the smallest, based on two-dimensional caliper measurements as previously described.
Based on these observations, we hypothesized that a combination of checkpoint inhibitor and T cell therapy may offer better therapeutic benefit against EBV-associated tumours.

CC(=O)Nc1cccc(-n2c(=O)n(C3CC3)c(=O)c3c(Nc4ccc(I)cc4F)n(C)c(=O)c(C)c32)c1 [trematinib]
IC50 ([1]; 48 h, read-out: IC50 (~50% reduction in cell viability)): ~2.5 µM | IC25 value (sub IC50 value) ([1]; concentration chosen for in vitro combination treatment): 1 µM

Nivolumab: anti-PD1 antibody
SNU719 gastric cancer outgrowth ([2]; Nivolumab 24 hrs after T cell infusion, combination vs monotherapy and mock-treated groups, p<0.0001): significantly reduced | tumour size (tumour weight) ([2]; combination with T cells vs monotherapy groups): significantly reduced tumour size | survival post therapy ([2]; combination with T cells vs monotherapy or mock-treated group, p<0.0001): significantly improved | better survival in comparison to only T cell treated group ([2]; combination with T cells, p<0.01): ~2 fold
